Test results reported in patent publication US20110178154A1, “GENE EXPRESSION PROFILE THAT PREDICTS OVARIAN CANCER SUBJECT RESPONSE TO CHEMOTHERAPY” (priority 2007, published 2011).
d = 2'-deoxy (DNA); r = 2'-OH (RNA)

Key:
[1] = test system: A2780CP20 ovarian cancer cell line; test: MTS proliferation assay: cisplatin sensitivity after siRNA pretreatment; assay type: cell-based; settings: for fold change in cisplatin sensitivity: A2780CP20 cells, compared to siNEG
Method: Cell culture and RNA interference. Ovarian cancer cell lines were routinely maintained in medium supplemented with 10% fetal bovine serum and 2 mM L-glutamine. SKOV3 and OVCAR3 cell lines were maintained in RPMI-1640 medium, OVCA420 and OVCA432 were maintained in 105/199 medium and OVCA420 and CAOV3 cells were maintained in DMEM medium. For 3-(4,5-dimethylthiazol-2-yl)-5-(3-carboxymethoxyphenyl)-2-(4-sulfophenyl)-2H-tetrazolium (MTS) assays, transfections mediated by cationic lipid were performed in 96-well plates. Cells were seeded on a complex of the appropriate siRNA (QIAGEN® Inc., Germantown, Md.) and Oligofectamine (Invitrogen, Carlsbad, Calif.) in unsupplemented growth medium. Final amounts in each well were 50 nM siRNA, 0.5 ul Oligofectamine, and 3000 cells in 100 μL medium. The siRNA target sequences of the synthetic siRNAs were designed against the reference RNA sequence.
MTS proliferation assay. Cell line sensitivity to chemotherapeutic reagents such as cisplatin or taxol was determined by measuring formazan production from MTS (PROMEGA®, Madison, Wis.), with drug concentrations tested in octuplicates in each experiment. For example, serial dilutions of cisplatin or taxol were made shortly before addition to cells. At 48 hours after transfection and seeding, cells were washed by aspiration of the supernatant, and 150 uL of drug-containing medium is added. Another 48 hours later, the drug solution was aspirated and 120 uL MTS-containing medium is added according to the manufacturer's protocol (PROMEGA® #G3580, Madison, Wis.). The plates were incubated at 37° C. and read at 490 nm after 3 hours. Using GraphPad PRISM® 4.02 (GraphPad Software Inc., San Diego, Calif.), the drug concentrations were log-transformed and nonlinear regression is performed on the A490 data using the sigmoidal dose response model with variable slope. Mean EC50 values, standard errors, and 95% confidence intervals were determined from the logistic fits.
(§1) As described above in Example 1, A2780CP20 ovarian cancer cell lines were transfected with siPOLH-2 or siPOLH-5, treated with cisplatin starting 48 hours later, and assayed with MTS 48 hours thereafter. Viable cell number data was acquired by reading the fluorescence emissions at 490 nm. Using GraphPad Prism 4.02, cisplatin drug concentrations were log-transformed and nonlinear regression performed on the A490 data using the sigmoidal dose response model with variable slope to generate the IC50 curves. IC50 values and 95% confidence intervals were determined from the logistic fits.
as §1, with “A2780CP20” for “As described above in Example 1, A2780CP20”, “siREV3L-1” for “siPOLH-2”, “siREV3L-2,” for “siPOLH-5,”, “thereafter (as described above, including Example 1).” for “thereafter.”, “fits. […] Further, a 2.1 fold change in cisplatin sensitivity was detected for siREV3L-1 pretreatment and a 2.9 fold change in such sensitivity for siREV3L-2 pretreatment.” for “fits.”
as §1, with “FIG. 5 illustrates the effect of pretreatment with RNAi against POLH and REV3L on cisplatin resistance.” for “As described above in Example 1,”, “cotransfected” for “transfected”, “siPOLH-5 and siREV3L-2,” for “siPOLH-2 or siPOLH-5,”

[2] = test system: POLH; test: Western blot analysis for POLH after POLH siRNA treatment; assay type: cell-based; settings: lysates at 24, 48, 72 and 96 hours; 5 ul of 1 ug/ul POLH-siRNA
Method: Cell lysates were collected and examined by Western blot analysis for POLH. After treating cells with 5 ul of 1 ug/ul POLH-siRNA, lysates were collected at 24, 48, 72 and 96 hours and then analyzed for down-regulation of POLH.

Substance	cell sensitivity to cisplatin when compared to cells treated with siNEG [1]	fold change in cisplatin sensitivity [1] [fold]	POLH expression (down-regulation of POLH) [2]
siREV3L-2: synthetic siRNA against REV3L (exon 17), Qiagen cat #SI00045633, SEQ ID NO:5 sense and SEQ ID NO:6 antisense (sense CACUGGAAUUAAUGCACAATT; antisense UUGUGCAUUAAUUCCAGUGTG; sugars from the 5' end r19 d2, backbone not given here)	significantly increased	2.9	–
siPOLH-2: synthetic siRNA against POLH (exon 10), Qiagen cat #SI00089012, SEQ ID NO:8 sense and SEQ ID NO:9 antisense (sense CCAUUUAGGUGCUGAGUUATT; antisense UAACUCAGCACCUAAAUGGAG; sugars from the 5' end r19 d2, backbone not given here)	significantly increased	1.6	–
siPOLH-5: synthetic siRNA against POLH (exon 11), Qiagen cat #SI02663619, SEQ ID NO:11 sense and SEQ ID NO:12 antisense (sense GGUUGUGAGCAUUCGUGUATT; antisense UACACGAAUGCUCACAACCTG; sugars from the 5' end r19 d2, backbone not given here)	significantly increased	1.9	inhibit POLH RNA expression
siREV3L-1: synthetic siRNA against REV3L (exon 18), Qiagen cat #SI00045626, SEQ ID NO:2 sense and SEQ ID NO:3 antisense (sense GGAUGUAGUCAAACUGCAATT; antisense UUGCAGUUUGACUACAUCCAG; sugars from the 5' end r19 d2, backbone not given here)	significantly increased	2.1	–
